In patent US20210061800A1, “COMPOUNDS FOR TREATING EYE DISEASES AND METHODS THEREOF” (Agency for Science, Technology and Research, priority 2017, published 2021):

Key:
PDGFR-WT [1] = biological target: T1, PDGFR-WT (Homo sapiens, UniProt P09619); assay: PDGFRβ signaling in HEK293 cells (Western blot: PDGFRβ autophosphorylation, Shp2 phosphorylation); format: cell-based; parameters: expressed in transfected cells; host or cells: HEK293; settings: 20 ng/ml PDGF
Experimental: FIG. 5 illustrates a Western-blot analysis result of Ex 1 (a compound of the present invention), in relation to inhibit PDGFRβ signaling in HEK293 cells expressing PDGFRβ.
Human Embryonic kidney cells (HEK293) were constructed to express human PDGFRWT under the control of constitutive CMV promoter. Cells were grown in the presence of 20 ng/ml PDGF (the ligand for the PDGFRβ) to activate the PDGFRβ. Different concentration of Ex 1 were added to study its effect on the PDGFRβ-mediated signaling. Autophosphorylation of PDGFRβ and Shp2 phosphorylation were monitored by Western blotting were used as the markers for PDGFRβ signaling. B Actin was used as an internal control.
Target sequence in this assay (P09619 33-1106): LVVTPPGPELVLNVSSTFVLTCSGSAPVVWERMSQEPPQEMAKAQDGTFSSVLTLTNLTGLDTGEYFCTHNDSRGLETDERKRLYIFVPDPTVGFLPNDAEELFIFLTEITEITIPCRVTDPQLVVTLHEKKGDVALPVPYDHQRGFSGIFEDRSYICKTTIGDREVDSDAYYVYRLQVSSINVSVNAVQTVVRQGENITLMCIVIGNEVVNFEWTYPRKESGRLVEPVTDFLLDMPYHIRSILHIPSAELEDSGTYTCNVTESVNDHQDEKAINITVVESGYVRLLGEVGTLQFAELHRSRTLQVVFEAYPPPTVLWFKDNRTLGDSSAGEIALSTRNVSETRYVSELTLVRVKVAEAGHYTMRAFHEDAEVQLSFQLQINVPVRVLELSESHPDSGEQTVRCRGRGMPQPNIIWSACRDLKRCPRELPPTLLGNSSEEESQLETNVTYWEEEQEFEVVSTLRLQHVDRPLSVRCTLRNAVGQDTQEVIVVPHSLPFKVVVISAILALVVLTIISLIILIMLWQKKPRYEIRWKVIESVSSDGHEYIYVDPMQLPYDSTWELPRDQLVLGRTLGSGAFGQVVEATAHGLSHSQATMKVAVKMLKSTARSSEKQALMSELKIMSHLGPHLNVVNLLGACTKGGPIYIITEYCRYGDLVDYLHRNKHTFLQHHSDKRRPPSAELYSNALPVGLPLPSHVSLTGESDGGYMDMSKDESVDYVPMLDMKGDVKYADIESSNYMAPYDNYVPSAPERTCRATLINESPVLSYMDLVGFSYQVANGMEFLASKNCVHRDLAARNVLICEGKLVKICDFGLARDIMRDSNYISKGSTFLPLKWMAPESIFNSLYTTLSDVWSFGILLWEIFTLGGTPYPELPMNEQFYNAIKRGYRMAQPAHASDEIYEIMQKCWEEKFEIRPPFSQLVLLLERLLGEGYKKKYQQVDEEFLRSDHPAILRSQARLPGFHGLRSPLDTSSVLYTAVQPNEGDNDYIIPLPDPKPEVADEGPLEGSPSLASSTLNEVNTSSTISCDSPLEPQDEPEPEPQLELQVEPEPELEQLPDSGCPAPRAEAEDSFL

human PDGFRβWT = assay: Humanized yeast screen: prevention of PDGFR-induced death of yeast cells; settings: 10 μM; compared to DMSO or Gleevec
Experimental: A humanized yeast screen was performed. Yeast cells carrying stably integrated GAL-PDGFRβ were first grown in YEP+raff medium and then seeded into fresh YEP+raff+GAL medium to induce expression of human PDGFRβWT.

PDGFR-WT [2] = biological target: T1, PDGFR-WT; assay: PDGFRβ-dependent growth of Ba/F3 cells; format: cell-based; settings: inhibition of PDGFRβ-dependent growth of Ba/F3 cells; read-out: effective concentration-50 (EC50) against PDGFR-WT
Experimental: Based on in silico modelling and simulation, different derivatives of the diphenyl oxyacetamide based compounds (formula (I)) were synthesized. The potency of the compounds were measured in terms of its ability to inhibit the PDGFRβ-dependent growth of Ba/F3 cells.
FIG. 6 illustrates work flow for synthesis of G6 derivatives Effective Concentration-50 (EC50) as determined using Ba/F3 cell.
Target sequence in this assay (P09619 554-1106 limits assumed, change not shown): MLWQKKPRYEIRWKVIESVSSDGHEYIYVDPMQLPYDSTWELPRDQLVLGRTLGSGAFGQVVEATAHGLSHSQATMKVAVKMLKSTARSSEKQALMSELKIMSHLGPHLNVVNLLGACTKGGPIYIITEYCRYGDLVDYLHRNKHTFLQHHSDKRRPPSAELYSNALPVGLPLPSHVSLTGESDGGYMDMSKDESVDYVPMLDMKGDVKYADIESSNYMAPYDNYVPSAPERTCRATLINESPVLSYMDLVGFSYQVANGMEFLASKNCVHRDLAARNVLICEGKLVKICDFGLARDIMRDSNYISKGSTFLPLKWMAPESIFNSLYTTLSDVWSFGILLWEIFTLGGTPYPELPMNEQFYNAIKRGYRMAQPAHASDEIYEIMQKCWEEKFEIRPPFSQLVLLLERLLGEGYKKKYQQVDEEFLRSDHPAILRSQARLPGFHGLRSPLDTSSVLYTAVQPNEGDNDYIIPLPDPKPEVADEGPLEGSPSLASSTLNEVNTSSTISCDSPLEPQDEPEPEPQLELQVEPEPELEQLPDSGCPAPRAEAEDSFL

human PDGFRβ = biological target: T2, human PDGFRβ (Homo sapiens, UniProt P09619); assay: PDGFRβ signaling in Ba/F3 cells (Western blot); format: cell-based; settings: BaF3 cells expressing PDGFRβ, PDGF-induced
T2 construct: expressed in transfected cells; host or cells: Ba/F3
Experimental: FIG. 7 illustrates a Western-blot analysis result of Ex 2 and Ex 3 (compounds of the present invention) to inhibit PDGFRβ signaling in BaF3 cells expressing PDGFRβ.
Ba/F3 cells were constructed to express human PDGFRβ under the control of CMV promoter. The PDGFRβ signaling was induced by addition of the ligand PDGF. The effect of […] and Ex 3 was added to the cell cultures at different concentrations to determine their efficacy to inhibit the PDGFRβ signaling as reflected by the inhibition of PDGFRβ autophosphorylation and the phosphorylation of Shp2, a downstream effector of the PDGFRβ signal pathway.
FIG. 7 illustrates a Western-blot analysis result, illustrating the efficacy of compounds of the present invention to inhibit PDGFRβ signaling in BaF3 cells expressing PDGFRβ.

[3] = test system: Choroid Neo-Vascularization; assay: Laser CNV mouse model for wet-AMD; format: in vivo; settings: injection into one eye, imaged for two weeks
Experimental: In vivo testing of Ex 3 in CNV (Choroid Neo-Vascularization)-laser mouse model was performed. Eyes of young mice were treated with laser to create choroid damage which results in the leakage of blood vessels (seen as light areas of FIG. 11). In each mouse, one eye was injected with a predetermined amount of Ex 3 while the other eye remained untreated to serve as ‘treatment(−)’ control. Mouse eyes were imaged intermittently for two weeks. The efficacy of the compound Ex 3 is indicated by its ability to prevent the leakage of the blood vessels (reduction or disappearance of the bright green areas).
FIG. 11 illustrates the efficacy of a compound of the present invention in Laser CNV mouse model for wet-AMD.

[4] = test system: Choroid membrane preparations; assay: Ex vivo organoid model of angiogenesis (choroid membrane preparations in Matrigel); format: cell-based, mice; settings: mouse choroid in Matrigel
Experimental: Choroid membrane preparations isolated from young mice were cultured in Matrigel. Matrigel containing these preparations were layered with growth medium containing various concentrations of Ex 2 and Ex 3. The ‘blood vessel’ growth was monitored and quantified using a specialized image analysis software.
FIG. 10 illustrates the efficacy of the compounds of the present invention in an ex vivo organoid model of angiogenesis. Compounds of the present invention show anti-angiogenesis in organoid model.

T2 sequence (P09619 33-1106): as the sequence (P09619 33-1106) above

Structure (SMILES)	inhibition of PDGFRWT-mediated signaling (PDGFR-WT [1])	cell growth (OD reading) of humanized yeast expressing PDGFRβ (human PDGFRβWT)	EC50 (PDGFR-WT [2]) [nM]	activity against PDGFRβ-WT signaling (human PDGFRβ)	efficacy in preventing leakage of blood vessels [3]	anti-angiogenesis efficacy ('blood vessel' growth) [4]
Cc1ccc(NC(=O)COc2ccc(-n3cnnn3)cc2)cc1C [Ex 1, N-(3,4-dimethylphenyl)-2-[4-(tetrazol-1-yl)phenoxy]acetamide]	efficiently inhibits the PDGFRWT-mediated signaling	allows cell-growth more efficiently compared to DMSO or Gleevec	–	–	–	–
Cc1ccc(NC(=O)COc2ccc(-c3cnc4ccccn34)cc2)cc1C(F)(F)F [Ex 3, N-[4-methyl-3-(trifluoromethyl)phenyl]-2-[4-imidazo[1,2-a]pyridin-3-ylphenoxy]acetamide]	–	–	10	show activities against PDGFRβ-WT	efficacy	–
Cc1ccc(NC(=O)COc2ccc(-c3cnc4ccccn34)cc2)cc1C [Ex 2, N-(3,4-dimethylphenyl)-2-[4-imidazo[1,2-a]pyridin-3-ylphenoxy]acetamide]	–	–	10	show activities against PDGFRβ-WT	–	better anti-angiogenesis efficacy then Ex 3
